# Results published in BindingDB's records for doi:10.1021/acs.jmedchem.9b01348 (West China Hospital of Sichuan University, 2019).
# Assay: Inhibition of JAK2 V617F mutant in BAF3 cells assessed as reduction in cell growth measured after 72 hrs by MTT assay
smiles,measurement,value
C1=C/COCc2cc(ccc2OCCN2CCCC2)Nc2nccc(n2)-c2cccc(c2)COC/1 [ONX-0803],IC50,1060 nM
